Drawing on patent US12208110B2 (priority 2020, dated 2025), this text covers EC50 and CC50 for eight compounds.

What all share (assay type): cell-based
Data set [1] relates to RSV-Fluc (Recombinant Respiratory Syncytial virus strain A2 containing the firefly luciferase reporter). Description: microbe, parasite or virus in culture. To be noted: human respiratory syncytial virus, NHBE, 72 h, read-out: RSV-Fluc EC50 (nM, NHBE).
The test system of data set [2] is SARS-CoV-2. Description: microbe, parasite or virus in culture. To be noted: Severe acute respiratory syndrome coronavirus 2, 48 h.
The nature of data set [3]: MT4 cytotoxicity analysis (CellTiter-Glo). To be noted: human, MT4 CC50 (nM). On the procedure: Example 79: MT4 Cytotoxicity Analysis
3-fold serially diluted compound in DMSO, ranging from 2.5 uM to 10 mM, were added by acoustic transfer (Echo) in quadruplicate into black 384-well plates at 200 nl/well. After compound addition, 40 ul MT-4 cells at 80,000/ml were added to each well using a MicroFlo liquid dispenser (BioTek, Winooski, VT) and the cells were cultured for five days at 37° C. Following the incubation, cell viability was determined by adding 35 μL of CellTiter-Glo viability reagent and mixed thoroughly using ViaFlo 384 well workstation. The mixture was incubated for at least 10 minutes at 25° C., and the luminescence signal was quantified on an EnVision plate reader.
A general note: ATP-based viability assays read luminescence as a measure of living cells.

Molecules are shown by their SMILES.

For `CCCCCCCCCCCCCCCCCCOC[C@H](COP(=O)(O)OC[C@H]1O[C@@](C#N)(c2ccc3c(N)ncnn23)[C@H](O)[C@@H]1O)N(Cc1ccc(F)c(Cl)c1)C(C)=O` [Example 10, ((2R,3S,4R,5R)-5-(4-aminopyrrolo[2,1-f][1,2,4]triazin-7-yl)-5-cyano-3,4-dihydroxytetrahydrofuran-2-yl)methyl ((R)-2-(N-(3-chloro-4-fluorobenzyl)acetamido)-3-(octadecyloxy)propyl) hydrogen phosphate], the EC50 in data set [1] is 55 nM; in data set [2] it was 3600 nM.

Regarding `CCCCCCCCCCCCCCCCCCOC[C@H](COP(=O)(O)OC[C@H]1O[C@@](C#N)(c2ccc3c(N)ncnn23)[C@H](O)[C@@H]1O)N1Cc2ccccc2C1=O` [Example 11, ((2R,3S,4R,5R)-5-(4-aminopyrrolo[2,1-f][1,2,4]triazin-7-yl)-5-cyano-3,4-dihydroxytetrahydrofuran-2-yl)methyl ((R)-3-(octadecyloxy)-2-(1-oxoisoindolin-2-yl)propyl) hydrogen phosphate], the 50% effective concentration (EC50) in data set [1] came to 47 nM; in data set [2] it was 3800 nM.

With `CCCCCCCCCCCCCCCCSCCCOP(=O)(O)OC[C@H]1O[C@@](C#N)(c2ccc3c(N)ncnn23)[C@H](O)[C@@H]1O` [Example 19, ((2R,3S,4R,5R)-5-(4-Aminopyrrolo[2,1-f][1,2,4]triazin-7-yl)-5-cyano-3,4-dihydroxytetrahydrofuran-2-yl)methyl (3-(hexadecylthio)propyl) hydrogen phosphate], the EC50 in data set [1] is 210 nM; in data set [2], 3400 nM.

As for `CCCCCCCCCCCCCCCCOCCOP(=O)(O)OC[C@H]1O[C@@](C#N)(c2ccc3c(N)ncnn23)[C@H](O)[C@@H]1O` [Example 20, ((2R,3S,4R,5R)-5-(4-Aminopyrrolo[2,1-f][1,2,4]triazin-7-yl)-5-cyano-3,4-dihydroxytetrahydrofuran-2-yl)methyl (2-(hexadecyloxy)ethyl) hydrogen phosphate], the EC50 came out at 200 nM in data set [1] and 3800 nM in data set [2].

Consider `CCCCCCCCCCCCCCCCCCOC[C@H](COCc1cc(F)cc(S(C)(=O)=O)c1)OP(=O)(O)OC[C@H]1O[C@@](C#N)(c2ccc3c(N)ncnn23)[C@H](O)[C@@H]1O` [Example 33, ((2R,3S,4R,5R)-5-(4-aminopyrrolo[2,1-f][1,2,4]triazin-7-yl)-5-cyano-3,4-dihydroxytetrahydrofuran-2-yl)methyl ((R)-1-((3-fluoro-5-(methylsulfonyl)benzyl)oxy)-3-(octadecyloxy)propan-2-yl) hydrogen phosphate], for which, in data set [1], the EC50 was 120 nM.

For the compound `CCCCCCCCCCCCCCCCCCOC[C@H](Cc1ccccc1)OP(=O)(O)OC[C@H]1O[C@@](C#N)(c2ccc3c(N)ncnn23)[C@H](O)[C@@H]1O` [Example 40, ((2R,3S,4R,5R)-5-(4-aminopyrrolo[2,1-f][1,2,4]triazin-7-yl)-5-cyano-3,4-dihydroxytetrahydrofuran-2-yl)methyl ((S)-1-(octadecyloxy)-3-phenylpropan-2-yl) hydrogen phosphate], the EC50 in data set [1] is 380 nM.

As to `CCCCCCCCCCCCCCCCCCOC[C@H](COP(=O)(O)OC[C@H]1O[C@@](C#N)(c2ccc3c(N)ncnn23)[C@H](O)[C@@H]1O)OCc1cc(F)cc(C(=O)O)c1` [Example 44, 3-((((2R)-1-(((((2R,3S,4R,5R)-5-(4-aminopyrrolo[2,1-f][1,2,4]triazin-7-yl)-5-cyano-3,4-dihydroxytetrahydrofuran-2-yl)methoxy)(hydroxy)phosphoryl)oxy)-3-(octadecyloxy)propan-2-yl)oxy)methyl)-5-fluorobenzoic acid], in data set [1], the EC50 was 120 nM. The compound further yielded a 50% cytotoxic concentration (CC50) at 5 days in data set [3] of 25000 nM.

On to `CCCCCCCCCCCCCCCCOCCOP(=O)(O)OC[C@H]1O[C@@](C#N)(c2ccc3c(N)ncnn23)[C@H](O)[C@@H]1O` [Example 66, [(2R,3S,4R,5R)-5-(4-Aminopyrrolo[2,1-f][1,2,4]triazin-7-yl)-5-cyano-3,4-dihydroxy-tetrahydrofuran-2-yl]methyl 2-hexadecoxyethyl hydrogen phosphate], for which half-maximal cytotoxicity in data set [3] (CC50 at 5 days) was put at 29000 nM.

Usually EC50 stands for the concentration giving half of the maximal effect. In general, CC50 refers to the concentration giving 50% cytotoxicity. High values mean better tolerance by the cells, low ones harm at low concentration.
